Results taken from ChEMBL document CHEMBL1153309, “Synthesis and biological evaluation of platensimycin analogs” (Bioorg Med Chem Lett, 2009).
In brackets after ≈: the same amount, converted by molar mass.

Assays:
[1] = system: Staphylococcus aureus; test: Antimicrobial activity against wild type Staphylococcus aureus; type: functional
[2] = target: T1, 3-oxoacyl-[acyl-carrier-protein] synthase 2 (Staphylococcus aureus, UniProt Q5TKS0); test: Inhibition of FabF-mediated type 2 fatty acid synthesis in Staphylococcus aureus by cell free assay
T1 sequence (Q5TKS0 whole entry): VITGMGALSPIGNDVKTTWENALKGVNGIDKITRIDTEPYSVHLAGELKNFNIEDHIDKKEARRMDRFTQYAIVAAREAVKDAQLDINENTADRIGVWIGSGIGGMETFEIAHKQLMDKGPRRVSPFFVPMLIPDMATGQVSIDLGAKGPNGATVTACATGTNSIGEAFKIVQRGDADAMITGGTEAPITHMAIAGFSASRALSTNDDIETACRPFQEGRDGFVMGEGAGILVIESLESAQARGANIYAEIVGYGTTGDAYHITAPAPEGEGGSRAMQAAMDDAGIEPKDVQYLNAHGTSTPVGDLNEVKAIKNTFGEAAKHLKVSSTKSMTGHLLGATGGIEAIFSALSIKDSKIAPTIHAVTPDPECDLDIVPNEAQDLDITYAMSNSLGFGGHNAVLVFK

[3] = system: Staphylococcus aureus; test: Antibacterial activity against antisense fabH/fabF sensitized Staphylococcus aureus assessed as minimum concentration required to show differential zone of fabF antisense strain clearance by two plate differential sensitivity assay; type: functional

| SMILES | MIC [1] | IC50 [2] | Activity [3] |
| --- | --- | --- | --- |
| CC1CC(=O)[C@@](C)(CCC(=O)Nc2c(O)ccc(C(=O)O)c2O)C2C3CC4CC12CC4(C)O3 (stereo not given in full) | 4 µg/mL (≈ 8.74 µM) | 28.4 µM | <20 µg/mL |
| Cn1ncc2c1[C@@](C)(CCC(=O)Nc1c(O)ccc(C(=O)O)c1O)C1C3CC4CC1(C2)CC4(C)O3 (stereo not given in full) | > 64 µg/mL | 156 µM | >2.7 µg/mL |
| CN1CC23CC4CC(OC4(C)C2)C3[C@](C)(CCC(=O)Nc2c(O)ccc(C(=O)O)c2O)C1=O (stereo not given in full) | > 64 µg/mL | > 436 µM | >2.7 µg/mL |
| CC12CC34CC1CC(O2)C3[C@](C)(CCC(=O)Nc1c(O)ccc(C(=O)O)c1O)C(=O)CC4c1ccccc1 (stereo not given in full) [PHENYL DIHYDROPLATENSIMYCIN] | 4 µg/mL (≈ 7.7 µM) | 7.7 µM | <20 µg/mL |
| CC12CC34Cc5cnoc5[C@@](C)(CCC(=O)Nc5c(O)ccc(C(=O)O)c5O)C3C(CC1C4)O2 (stereo not given in full) | 16 µg/mL (≈ 34.2 µM) | 22.4 µM | 0.3 µg/mL |
| CC12CC34COC(=O)[C@@](C)(CCC(=O)Nc5c(O)ccc(C(=O)O)c5O)C3C(CC1C4)O2 (stereo not given in full) | > 64 µg/mL | 165 µM | >2.7 µg/mL |
| CC12C[C@@]34C=CC(=O)[C@@](C)(CCC(=O)Nc5c(O)ccc(C(=O)O)c5O)C3[C@H](CC1C4)O2 (stereo not given in full) [PLATENSIMYCIN] | 0.5 µg/mL (≈ 1.13 µM) | 1.13 µM | 0.01 µg/mL |
| CC12CC34CC1CC(O2)C3[C@](C)(CCC(=O)Nc1c(O)ccc(C(=O)O)c1O)C(=O)[C@@H]1C[C@@H]14 (stereo not given in full) | 1 µg/mL (≈ 2.2 µM) | 20.9 µM | 0.1 µg/mL |
| CC1=CC(=O)[C@@](C)(CCC(=O)Nc2c(O)ccc(C(=O)O)c2O)C2C3CC4CC12CC4(C)O3 (stereo not given in full) | 4 µg/mL (≈ 8.78 µM) | 5.27 µM | 0.03 µg/mL |
| CC12CC34CCC(=O)[C@@](C)(CCC(=O)Nc5c(O)ccc(C(=O)O)c5O)C3C(CC1C4)O2 (stereo not given in full) [DIHYDROPLATENSIMYCIN] | 2 µg/mL (≈ 4.51 µM) | 4.51 µM | 0.4 µg/mL |
